{"source": "patent EP3501490A1", "about": "“COMPOSITION FOR EXTERNAL USE THAT INCLUDES PTEROSTILBENE GLYCOSIDE” (Tomoike Industrial (H.K.) Limited, priority 2016, dated 2018)", "key": {"type IV collagen": {"test_system": "type IV collagen", "assay": "Type IV collagen protein expression in three-dimensional skin model by western blotting and densitometry (Experimental Examples 2 and 5)", "assay_type": "cell-based", "conditions": "Homo sapiens, 168 h; 25 µM and 100 µM final concentrations, 7 days; at most (maximum), concentration dependent; α-tubulin internal standard; read-out: increase of the amount of type IV collagen expression in the three-dimensional skin model compared to the control", "quoted_text": "The three-dimensional skin model produced following the protocol of the kit was acclimated in the medium supplied with the kit.\nThe cells after culturing were collected, lysates thereof were subjected to western blotting using an anti-human collagen antibody (COL4A3BP; Abcam), and the amount of type IV collagen protein expression was analyzed. Further, western blotting using an anti-α-tubulin antibody as the internal standard was also performed, and the obtained image data was subjected to densitometry analysis.\nThese solutions were added to three-dimensional skin models and cultured for 7 days. The lysates of cells after culturing were subjected to western blotting using an anti-human collagen antibody, and the amounts of type IV collagen expression in the cells were analyzed. As a negative control (Ctrl), an experiment was performed in which a DMSO solution was added alone to the three-dimensional skin model.\nFurther, western blotting using an anti-α-tubulin antibody as the internal standard was also performed, and the obtained image data was subjected to densitometry analysis."}, "[1]": {"biological_target": "T1, Tyrosinase (Cat. No. T3824, SIGMA) (Agaricus bisporus, UniProt C7FF04)", "T1 construct": "purchased SIGMA T3824", "T1 sequence (C7FF04 2-392 limits assumed)": "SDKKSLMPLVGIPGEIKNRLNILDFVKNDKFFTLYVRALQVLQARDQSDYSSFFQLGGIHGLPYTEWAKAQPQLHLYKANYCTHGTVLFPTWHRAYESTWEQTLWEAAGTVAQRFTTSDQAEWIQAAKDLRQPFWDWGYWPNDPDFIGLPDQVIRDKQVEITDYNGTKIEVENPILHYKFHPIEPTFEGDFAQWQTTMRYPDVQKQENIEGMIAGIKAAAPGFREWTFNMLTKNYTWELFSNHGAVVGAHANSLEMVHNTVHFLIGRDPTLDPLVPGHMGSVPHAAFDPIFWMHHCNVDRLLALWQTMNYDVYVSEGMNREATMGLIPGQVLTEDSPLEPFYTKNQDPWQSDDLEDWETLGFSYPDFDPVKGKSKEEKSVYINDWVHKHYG", "assay": "In vitro tyrosinase inhibition experiment (Experimental Example 3)", "assay_type": "biochemical", "conditions": "fold more excellent than the aglycone pterostilbene, based on IC50 values of Fig. 3", "method": "The tyrosinase inhibitory effect of pterostilbene monoglucoside was analyzed (IC50 values were measured) based on a generally known method (e.g., Expert Opin Ther Pat. 2016; 26(3): 347-62). Tyrosinase (Cat. No. T3824, SIGMA) was used as tyrosinase. Further, pterostilbene (produced by Tokyo Chemical Industry Co., Ltd.; A in the figure), the pterostilbene monoglucoside above (B in the figure), and arbutin as a positive control (C in the figure) were used."}, "type IV collagen gene": {"test_system": "type IV collagen gene", "assay": "Type IV collagen mRNA expression in human skin cells by microarray method (Experimental Example 1)", "assay_type": "cell-based", "conditions": "120 h, cultured for 5 days, hTERT-immortalized human skin cells, read-out: increase of the expression amount of type IV collagen gene compared to the negative control experiment", "method": "Human skin cells were immortalized by introducing the hTERT gene and acclimated in a predetermined medium, Prigrow III (APB). Thereafter, the pterostilbene monoglucoside (50 µM) was added to the conditioned medium and cultured for 5 days in a 5% CO2 environment at 37°C.\nRNA was collected from the cells after culturing, and changes in the amount of type IV collagen mRNA expression were analyzed by microarray method. […] A negative control experiment was also performed in which the pterostilbene monoglucoside was not added to the conditioned medium."}}, "data": [{"smiles": "COc1cc(/C=C/c2ccc(OC3O[C@H](CO)[C@@H](O)[C@H](O)[C@H]3O)cc2)cc(OC)c1", "note": "(stereo partly drawn) [pterostilbene monoglucoside]", "values": [{"measurement": "maximal fold induction", "setting": "type IV collagen", "value": "~2.5"}, {"measurement": "tyrosinase inhibitory effect relative to pterostilbene (comparison of IC50 values)", "setting": "[1]", "value": "~5.5", "unit": "times"}, {"measurement": "fold induction at 50 µM", "setting": "type IV collagen gene", "value": "~1.35"}]}]}
